The target in experiment [1] is T1, GH10 from S. lividans (PDB ID 1E0V) (Streptomyces lividans, UniProt P26514).
T1 construct: gene xlnA; synthetic codon-optimised gene, N-terminal His6-MBP fusion kept in assay, E. coli BL21 DE3; probably catalytic domain as in 1E0V
Put plainly: 4-nitrophenol release, […] nm. In kind it is biochemical. The following applies: 37 °C, 50 mM Tris pH 6.5, 150 mM NaCl; MBP fusion.

In a further experiment the test system is T2, xyl3.2.
T2 construct: computational design (112 mutations to nearest natural protein), N-terminal His6-MBP fusion kept
The experiment in a line: 4-nitrophenol release, […] nm, Michaelis-Menten fit. Format: biochemical, synthetic construct. As to conditions: 37 °C, 50 mM Tris pH 6.5, 150 mM NaCl; MBP fusion.

Another experiment concerns T3, pll2.4.
T3 construct: computational design (60 mutations to nearest natural protein), N-terminal His6-MBP fusion kept
In kind it is biochemical, synthetic construct.

The test system of another experiment is T4, pll4.1.
T4 construct: computational design (85 mutations to nearest natural protein), N-terminal His6-MBP fusion kept
In kind it is biochemical, synthetic construct.

The next experiment deals with T5, pll2.2.
T5 construct: computational design (54 mutations to nearest natural protein), N-terminal His6-MBP fusion kept
Format: biochemical, synthetic construct.

A word on the Km: it is the concentration of substrate that gives half-maximal velocity.

T1 sequence (P26514 42-354): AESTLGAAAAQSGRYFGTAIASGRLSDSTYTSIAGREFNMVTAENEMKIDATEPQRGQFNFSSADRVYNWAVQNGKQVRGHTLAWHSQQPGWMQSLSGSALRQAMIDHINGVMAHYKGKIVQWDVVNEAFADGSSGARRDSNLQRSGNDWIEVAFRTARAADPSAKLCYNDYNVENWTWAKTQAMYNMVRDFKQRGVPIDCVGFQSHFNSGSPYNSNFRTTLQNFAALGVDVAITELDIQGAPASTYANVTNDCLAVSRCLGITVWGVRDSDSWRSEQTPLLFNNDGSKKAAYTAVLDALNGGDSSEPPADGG

Consider `O=[N+]([O-])c1ccc(O[C@@H]2OC[C@@H](O[C@@H]3OC[C@@H](O)[C@H](O)[C@H]3O)[C@H](O)[C@H]2O)cc1` [4-nitrophenyl β-xylobioside], for which, in experiment [1], the kcat/KM entry is on record as “Catalytic efficiency of GH10 designs with OPNPX2 compared to natural GH10 enzymes”. Further, the Km in the experiment with xyl3.2 turned out to be 160 ± 20 µM.
Regarding `CCCCSC1CCC(=O)O1` (centres unmarked) [5-thiobutyl butyrolactone], the Km with pll2.4 was 82 µM; in the experiment with pll4.1, 350 µM; in the experiment with pll2.2, 180 µM.
